Reference: the supplement of paper PMC9386025

Assays:
Experiment in all cases: drug sensitivity score (DSS) (DSS (dimensionless)); higher = more sensitive (stronger drug response)
FIMM-PDC3 = patient-derived ovarian cancer cells; conditions: genetic perturbation: none (patient-derived cell culture)
Outline: (§1)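 Cells, either patient-derived cultures or ovarian cancer cell lines given 100 ng/ml doxycycline for no less than three days to induce shRNA, went into 384-well plates at 1 000 – 1 500 per well over drugs pre-plated in five concentrations across a 10,000-fold range. The plates were held for three days at 37 °C with 5.0 % CO2. Cell viability was then taken from CellTiter-Glo luminescence on a PHERAstar FS. For each drug, a drug sensitivity score from its dose-response curve was obtained by a method described earlier.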

JHOS2 = test system: JHOS2
Outline: as §1

FIMM-PDC6 = patient-derived ovarian cancer cells; conditions: genetic perturbation: none (patient-derived cell culture)
Outline: as §1

OVSAHO = test system: OVSAHO
Outline: as §1

FIMM-PDC7 = patient-derived ovarian cancer cells; conditions: genetic perturbation: none (patient-derived cell culture)
Outline: as §1

Kuramochi = test system: Kuramochi
Outline: as §1

FIMM-PDC1 = patient-derived ovarian cancer cells; conditions: genetic perturbation: none (patient-derived cell culture)
Outline: as §1

FIMM-PDC5 = patient-derived ovarian cancer cells; conditions: genetic perturbation: none (patient-derived cell culture)
Outline: as §1

FIMM-PDC4 = patient-derived ovarian cancer cells; conditions: genetic perturbation: none (patient-derived cell culture)
Outline: as §1

FIMM-PDC2 = patient-derived ovarian cancer cells; conditions: genetic perturbation: none (patient-derived cell culture)
Outline: as §1

[1] = genetic perturbation: DOX-induced PTK7 shRNA knockdown
[2] = genetic perturbation: DOX-induced control shRNA

SMILES	drug sensitivity score (FIMM-PDC3)	drug sensitivity score (JHOS2; [1])	drug sensitivity score (JHOS2; [2])	drug sensitivity score (FIMM-PDC6)	drug sensitivity score (OVSAHO; [1])	drug sensitivity score (OVSAHO; [2])	drug sensitivity score (FIMM-PDC7)	drug sensitivity score (Kuramochi; [1])	drug sensitivity score (Kuramochi; [2])	drug sensitivity score (FIMM-PDC1)	drug sensitivity score (FIMM-PDC5)	drug sensitivity score (FIMM-PDC4)	drug sensitivity score (FIMM-PDC2)
CNC(=O)c1ccccc1Nc1cc(Nc2ccc(N3CCOCC3)cc2OC)ncc1C(F)(F)F [VS-4718]	3.8	5.9	3.7	10.3	5.7	9.9	5.4	10.8	4.8	5.4	8	9.2	–
CCCCC(=O)OCC(=O)[C@]1(O)Cc2c(O)c3c(c(O)c2[C@@H](O[C@H]2C[C@H](NC(=O)C(F)(F)F)[C@H](O)[C@H](C)O2)C1)C(=O)c1c(OC)cccc1C3=O [Valrubicin]	7.3	5.7	7.5	7.2	6.7	5.8	7	5.25	5.1	5.75	8	7.7	–
C[C@@H]1COC(Nc2ccc3ncnc(Nc4ccc(OCc5nccs5)c(Cl)c4)c3c2)=N1 [Varlitinib]	8.6	< 0	< 0	5.2	1.2	< 0	6.9	0.05	< 0	1.1	12.6	9.5	–
O=C(/C=C\n1cnc(-c2cc(C(F)(F)F)cc(C(F)(F)F)c2)n1)NNc1ccccn1 [Verdinexor]	10.9	11.3	7.7	11.7	6.1	3.2	11.5	4.4	5.2	3.7	11	11.2	–
CC[C@]1(O)C[C@@H]2CN(CCc3c([nH]c4ccccc34)[C@@](C(=O)OC)(c3cc4c(cc3OC)N(C)[C@H]3[C@@](O)(C(=O)OC)[C@H](OC(C)=O)[C@]5(CC)C=CCN6CC[C@]43[C@@H]65)C2)C1 [Vinblastine]	13	3.7	9.7	0.7	2	9	8.9	2.8	3.9	15.3	8.2	7.6	–
CCC1=C[C@@H]2CN(C1)Cc1c([nH]c3ccccc13)[C@@](C(=O)OC)(c1cc3c(cc1OC)N(C)[C@H]1[C@@](O)(C(=O)OC)[C@H](OC(C)=O)[C@]4(CC)C=CCN5CC[C@]31[C@@H]54)C2 [Vinorelbine]	26.2	19.4	17.1	18.6	22.6	18.5	12.8	20.3	7.2	19.2	27.2	26.7	–
CNC(=O)c1cccc(-c2ccc3c(N4CCOC[C@@H]4C)nc(N4CCOC[C@@H]4C)nc3n2)c1 [Vistusertib]	7.8	6.1	10.5	13	12.6	14.3	18.6	9.7	12.4	8.75	23.9	14.9	–
CC[C@@H]1C(=O)N(C)c2cnc(Nc3ccc(C(=O)N[C@H]4CC[C@H](N5CCN(CC6CC6)CC5)CC4)cc3OC)nc2N1C(C)C [Volasertib]	7	14.2	4.7	0.9	6.4	6.4	4.2	9.65	2.4	3.9	14.8	6	–
O=C(CCCCCCC(=O)Nc1ccccc1)NO [Vorinostat]	7.9	3.2	6.1	10.1	8.3	7.2	6.3	9.45	4.8	6	10.4	4.9	–
Oc1nc(-c2ccc(C(F)(F)F)cc2)nc2c1CSCC2 [XAV-939]	1.5	< 0	0.7	4.1	2.1	3	10.8	0.35	0.1	1.1	6.3	1.6	–
FC(F)c1nc2ccccc2n1-c1nc(N2CCOCC2)nc(N2CCOCC2)n1 [ZSTK474]	10	6.6	8.1	11.8	13.5	14	15.7	13.8	7.5	8.5	17.4	13.9	–
Cc1sc2c(c1C)C(c1ccc(Cl)cc1)=N[C@@H](CC(=O)NCCCCNC(=O)COc1cccc3c1C(=O)N(C1CCC(=O)NC1=O)C3=O)c1nnc(C)n1-2 (stereo not given in full) [dBET1]	2.7	3.2	5.5	7.5	4.3	3.4	5.8	3.9	4.4	0.1	11	8.1	2.6
